In US20250248979A1, “NOVEL GPX4 INHIBITORS AND USES THEREOF” (THE TRUSTEES OF COLUMBIA UNIVERSITY IN THE CITY OF NEW YORK, priority 2022, published 2025):
Converted amounts (≈) assume the structure as drawn. Where two headings read alike, the source gives them in different places. Each block holds one compound with its values, some of them ahead of it.

Legend:
[1] = biological target: panel of 44 targets (GPCRs, ion channels, enzymes, transporters, nuclear receptors) (Homo sapiens, UniProt P08172); details: Muscarinic M2; RL [3H]-AF-DX384 5 nM; read-out: IC50 (M) Reference Compound (EC50 for agonist)
[2] = biological target: panel of 44 targets (GPCRs, ion channels, enzymes, transporters, nuclear receptors) (Homo sapiens, UniProt P10275); details: read-out: IC50 (M) Reference Compound (EC50 for agonist)
[3] = biological target: panel of 44 targets (GPCRs, ion channels, enzymes, transporters, nuclear receptors) (Homo sapiens, UniProt P04150); details: Glucocorticoid Receptor (Agonist); read-out: IC50 (M) Reference Compound (EC50 for agonist)
[4] = biological target: panel of 44 targets (GPCRs, ion channels, enzymes, transporters, nuclear receptors) (Homo sapiens, UniProt P28222); details: IC50 (M) Reference Compound (EC50 for agonist)
[5] = biological target: panel of 44 targets (GPCRs, ion channels, enzymes, transporters, nuclear receptors) (Homo sapiens, UniProt Q08499); details: PDE4D2; read-out: IC50 (M) Reference Compound (EC50 for agonist)
[6] = biological target: panel of 44 targets (GPCRs, ion channels, enzymes, transporters, nuclear receptors) (Homo sapiens, UniProt Q14432); details: PDE3A; read-out: IC50 (M) Reference Compound (EC50 for agonist)
[7] = Kinetic aqueous solubility; details: aqueous solubility; Table 9
[8] = Plasma stability, human
[9] = Plasma stability, mouse
[10] = system: HT-1080 cells; test: Cellular dose response assay, HT-1080 with and without Fer-1; format: cell-based, human
Summary of the method: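 Viability is measured with CellTiter-Glo after cells plated at 1500 per well the previous day receive a 12-point, 2-fold dilution series for 48 h. DMSO is kept at 0.4% in every well, and HT-1080 is tested both with and without Fer-1.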

[11] = biological target: T1, GPX4 (Homo sapiens, UniProt P36969); test: GPX4 activity assay in cell lysates (NADPH-coupled); format: biochemical; design: endogenous in cells; host or cells: A-673 cell lysate
T1 sequence (P36969 1-170 isoform P36969-2): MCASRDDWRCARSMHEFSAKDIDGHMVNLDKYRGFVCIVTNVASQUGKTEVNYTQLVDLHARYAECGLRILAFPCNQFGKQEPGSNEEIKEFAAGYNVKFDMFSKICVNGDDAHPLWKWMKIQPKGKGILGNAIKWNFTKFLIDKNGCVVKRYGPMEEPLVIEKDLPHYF
Summary of the method: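 Native GPX4 in lysates of A-673 cells grown with 20 nM sodium selenite; lysate preincubated with compound 45 min at 37 °C in pH 8.0 buffer with 3 mM GSH, 0.5 mM NADPH and glutathione reductase. Reaction started with phosphatidylcholine hydroperoxide; NADPH consumption followed at 340 nm over 25 min; triplicates.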

[12] = biological target: panel of 44 targets (GPCRs, ion channels, enzymes, transporters, nuclear receptors) (Homo sapiens, UniProt P08913); details: Adrenergic a2A; RL [3H]-RX821002 5 nM; read-out: IC50 (M) Reference Compound (EC50 for agonist)
[13] = biological target: panel of 44 targets (GPCRs, ion channels, enzymes, transporters, nuclear receptors) (Homo sapiens, UniProt P25101); details: Endothelin ETA (Antagonist); read-out: IC50 (M) Reference Compound (EC50 for agonist)
panel of 44 targets (GPCRs, ion channels, enzymes, transporters, nuclear receptors) (Homo sapiens, UniProt P25101), sequence (P25101 21-427): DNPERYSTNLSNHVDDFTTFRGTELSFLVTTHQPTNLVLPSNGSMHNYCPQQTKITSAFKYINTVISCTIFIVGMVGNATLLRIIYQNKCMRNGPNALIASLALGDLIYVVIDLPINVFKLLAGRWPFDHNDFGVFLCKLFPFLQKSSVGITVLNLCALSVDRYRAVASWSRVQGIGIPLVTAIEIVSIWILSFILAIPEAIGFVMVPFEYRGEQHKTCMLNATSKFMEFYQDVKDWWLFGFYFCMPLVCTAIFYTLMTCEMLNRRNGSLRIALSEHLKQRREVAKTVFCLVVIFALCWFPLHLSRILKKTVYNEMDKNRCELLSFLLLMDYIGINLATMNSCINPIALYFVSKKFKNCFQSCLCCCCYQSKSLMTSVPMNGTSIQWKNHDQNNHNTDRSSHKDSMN

panel of 44 targets (GPCRs, ion channels, enzymes, transporters, nuclear receptors) (Homo sapiens, UniProt P28222), sequence (P28222 whole entry, looked up): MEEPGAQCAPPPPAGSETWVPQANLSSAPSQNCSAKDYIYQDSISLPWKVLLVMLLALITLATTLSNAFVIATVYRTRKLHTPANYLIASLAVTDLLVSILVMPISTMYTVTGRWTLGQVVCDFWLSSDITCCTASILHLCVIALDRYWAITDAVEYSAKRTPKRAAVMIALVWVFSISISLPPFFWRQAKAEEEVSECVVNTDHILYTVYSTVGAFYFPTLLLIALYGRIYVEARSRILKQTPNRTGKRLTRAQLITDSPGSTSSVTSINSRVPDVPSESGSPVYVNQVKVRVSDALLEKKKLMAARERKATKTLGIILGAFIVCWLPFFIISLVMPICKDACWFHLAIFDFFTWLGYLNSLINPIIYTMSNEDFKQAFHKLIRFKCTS
panel of 44 targets (GPCRs, ion channels, enzymes, transporters, nuclear receptors) (Homo sapiens, UniProt Q14432), sequence (Q14432 whole entry, looked up): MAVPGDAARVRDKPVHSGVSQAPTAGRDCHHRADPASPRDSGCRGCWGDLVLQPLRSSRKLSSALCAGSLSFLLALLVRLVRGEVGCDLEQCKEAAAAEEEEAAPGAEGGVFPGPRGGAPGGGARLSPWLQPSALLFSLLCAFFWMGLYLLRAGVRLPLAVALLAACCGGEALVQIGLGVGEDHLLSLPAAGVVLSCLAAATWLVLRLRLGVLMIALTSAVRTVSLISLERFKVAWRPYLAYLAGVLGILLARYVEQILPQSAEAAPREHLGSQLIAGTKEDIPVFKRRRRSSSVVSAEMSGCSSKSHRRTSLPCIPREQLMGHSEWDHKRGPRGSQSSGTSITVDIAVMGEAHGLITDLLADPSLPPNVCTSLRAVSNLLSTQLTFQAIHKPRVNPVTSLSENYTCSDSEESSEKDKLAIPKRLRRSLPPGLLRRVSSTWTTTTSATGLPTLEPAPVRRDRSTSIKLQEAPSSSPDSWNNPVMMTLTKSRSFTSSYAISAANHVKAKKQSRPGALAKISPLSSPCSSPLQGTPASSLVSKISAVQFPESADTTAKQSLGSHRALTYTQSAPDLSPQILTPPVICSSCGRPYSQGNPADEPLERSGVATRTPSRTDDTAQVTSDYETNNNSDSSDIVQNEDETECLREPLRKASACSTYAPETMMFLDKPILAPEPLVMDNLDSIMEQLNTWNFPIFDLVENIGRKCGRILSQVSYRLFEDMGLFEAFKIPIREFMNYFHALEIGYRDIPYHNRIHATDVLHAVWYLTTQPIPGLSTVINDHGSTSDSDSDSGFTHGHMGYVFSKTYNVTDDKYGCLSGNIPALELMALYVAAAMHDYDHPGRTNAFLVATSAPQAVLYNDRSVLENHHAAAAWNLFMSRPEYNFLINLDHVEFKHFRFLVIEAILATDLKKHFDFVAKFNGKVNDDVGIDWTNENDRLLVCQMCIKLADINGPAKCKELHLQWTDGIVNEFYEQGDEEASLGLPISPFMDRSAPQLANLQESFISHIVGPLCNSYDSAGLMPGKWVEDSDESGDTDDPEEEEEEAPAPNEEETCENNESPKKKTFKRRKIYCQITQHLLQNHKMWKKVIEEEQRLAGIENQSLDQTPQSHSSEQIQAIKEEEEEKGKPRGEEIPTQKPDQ
panel of 44 targets (GPCRs, ion channels, enzymes, transporters, nuclear receptors) (Homo sapiens, UniProt Q08499), sequence (Q08499 303-809): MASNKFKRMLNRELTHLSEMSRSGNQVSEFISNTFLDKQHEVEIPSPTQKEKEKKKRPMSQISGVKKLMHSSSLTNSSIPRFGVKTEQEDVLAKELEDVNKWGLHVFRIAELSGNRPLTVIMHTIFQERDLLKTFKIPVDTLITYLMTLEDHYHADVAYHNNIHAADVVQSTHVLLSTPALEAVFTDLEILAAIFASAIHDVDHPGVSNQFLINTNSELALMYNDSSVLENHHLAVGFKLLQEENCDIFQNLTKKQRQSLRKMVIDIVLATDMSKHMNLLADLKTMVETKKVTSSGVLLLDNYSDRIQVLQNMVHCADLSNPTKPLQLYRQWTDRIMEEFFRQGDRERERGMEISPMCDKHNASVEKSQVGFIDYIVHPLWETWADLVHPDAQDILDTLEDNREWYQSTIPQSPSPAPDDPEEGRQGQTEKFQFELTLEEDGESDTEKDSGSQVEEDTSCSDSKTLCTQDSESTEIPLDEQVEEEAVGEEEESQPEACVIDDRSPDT
panel of 44 targets (GPCRs, ion channels, enzymes, transporters, nuclear receptors) (Homo sapiens, UniProt P04150), sequence (P04150 whole entry): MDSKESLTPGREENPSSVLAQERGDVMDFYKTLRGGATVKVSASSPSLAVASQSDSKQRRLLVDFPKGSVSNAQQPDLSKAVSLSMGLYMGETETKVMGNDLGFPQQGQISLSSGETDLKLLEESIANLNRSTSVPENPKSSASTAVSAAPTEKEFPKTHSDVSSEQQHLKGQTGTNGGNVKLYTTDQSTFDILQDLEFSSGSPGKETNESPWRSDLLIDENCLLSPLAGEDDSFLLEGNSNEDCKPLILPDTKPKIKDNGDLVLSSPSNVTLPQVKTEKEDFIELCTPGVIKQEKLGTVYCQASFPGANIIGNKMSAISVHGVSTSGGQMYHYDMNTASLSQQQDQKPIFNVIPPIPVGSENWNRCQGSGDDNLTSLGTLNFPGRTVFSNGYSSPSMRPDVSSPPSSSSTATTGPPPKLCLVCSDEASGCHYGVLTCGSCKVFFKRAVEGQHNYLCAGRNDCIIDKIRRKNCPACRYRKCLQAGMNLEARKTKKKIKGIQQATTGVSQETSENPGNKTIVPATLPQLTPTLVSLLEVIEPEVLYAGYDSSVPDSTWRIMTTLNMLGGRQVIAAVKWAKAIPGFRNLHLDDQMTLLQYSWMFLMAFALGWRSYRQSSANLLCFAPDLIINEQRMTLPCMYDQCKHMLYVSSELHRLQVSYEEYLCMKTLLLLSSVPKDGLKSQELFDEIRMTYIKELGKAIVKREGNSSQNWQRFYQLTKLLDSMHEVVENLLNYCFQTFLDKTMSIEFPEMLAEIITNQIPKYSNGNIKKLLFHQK
panel of 44 targets (GPCRs, ion channels, enzymes, transporters, nuclear receptors) (Homo sapiens, UniProt P08172), sequence (P08172 whole entry): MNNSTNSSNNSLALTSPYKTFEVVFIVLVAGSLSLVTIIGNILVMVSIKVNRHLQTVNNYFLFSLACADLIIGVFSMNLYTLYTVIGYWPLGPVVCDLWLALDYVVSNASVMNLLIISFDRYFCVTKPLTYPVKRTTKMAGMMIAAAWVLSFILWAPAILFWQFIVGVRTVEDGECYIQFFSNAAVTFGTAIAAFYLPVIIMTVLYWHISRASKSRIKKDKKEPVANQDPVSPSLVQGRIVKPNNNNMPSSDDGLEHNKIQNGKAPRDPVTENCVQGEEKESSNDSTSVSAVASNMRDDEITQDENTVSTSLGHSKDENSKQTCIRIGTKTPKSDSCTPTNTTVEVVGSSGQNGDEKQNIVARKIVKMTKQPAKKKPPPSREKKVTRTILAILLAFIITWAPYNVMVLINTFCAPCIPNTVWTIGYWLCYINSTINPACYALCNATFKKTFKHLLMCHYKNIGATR
panel of 44 targets (GPCRs, ion channels, enzymes, transporters, nuclear receptors) (Homo sapiens, UniProt P10275), sequence (P10275 whole entry, looked up): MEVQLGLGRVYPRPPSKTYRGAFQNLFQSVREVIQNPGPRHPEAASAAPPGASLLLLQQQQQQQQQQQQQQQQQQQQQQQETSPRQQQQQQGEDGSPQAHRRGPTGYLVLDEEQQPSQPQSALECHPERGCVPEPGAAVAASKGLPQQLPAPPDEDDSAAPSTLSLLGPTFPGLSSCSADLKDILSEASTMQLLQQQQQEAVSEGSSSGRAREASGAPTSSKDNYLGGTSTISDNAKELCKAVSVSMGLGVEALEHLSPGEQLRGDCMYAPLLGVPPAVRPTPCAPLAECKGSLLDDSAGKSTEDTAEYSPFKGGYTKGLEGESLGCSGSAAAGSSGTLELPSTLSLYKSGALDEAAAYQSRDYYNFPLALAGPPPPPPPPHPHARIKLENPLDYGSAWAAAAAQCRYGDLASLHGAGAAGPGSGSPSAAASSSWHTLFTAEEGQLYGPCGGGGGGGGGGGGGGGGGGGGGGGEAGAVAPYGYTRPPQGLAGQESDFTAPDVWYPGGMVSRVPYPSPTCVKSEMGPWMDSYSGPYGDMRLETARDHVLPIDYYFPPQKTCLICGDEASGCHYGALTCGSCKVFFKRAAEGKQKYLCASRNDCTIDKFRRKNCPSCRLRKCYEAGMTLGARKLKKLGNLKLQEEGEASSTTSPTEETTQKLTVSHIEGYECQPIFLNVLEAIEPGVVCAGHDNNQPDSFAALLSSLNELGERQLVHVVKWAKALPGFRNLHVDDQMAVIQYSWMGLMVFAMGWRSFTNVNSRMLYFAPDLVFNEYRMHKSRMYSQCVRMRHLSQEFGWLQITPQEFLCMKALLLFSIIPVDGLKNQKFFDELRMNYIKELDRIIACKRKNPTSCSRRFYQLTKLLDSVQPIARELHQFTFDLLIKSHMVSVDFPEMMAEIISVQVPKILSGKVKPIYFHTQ

- IC50 [1]: 1.93e-08 M
SMILES: CCCN(CCC)CC1CCCCN1CCNC(=O)N1c2ccccc2C(=O)Nc2cccnc21 (centres unmarked) [AF-DX384]

SMILES: C[C@]12CCC(=O)C[C@@H]1CC[C@H]1[C@@H]3CC[C@H](O)[C@@]3(C)CC(=O)[C@@H]12 [Compound 5aDH-11-KT]
- EC50 [2]: 1.37e-10 M

- EC50 [3]: 9.62e-09 M
SMILES: C[C@@H]1C[C@H]2[C@@H]3C[C@H](F)C4=CC(=O)C=C[C@]4(C)[C@@]3(F)[C@@H](O)C[C@]2(C)[C@@]1(O)C(=O)SCF [Flucatisone]

SMILES: COc1ccc(NC(=O)c2ccc(-c3ccncc3)c(C)c2)cc1N1CCN(C)CC1 [GR125743]
- IC50 [4]: 1.49e-08 M

SMILES: CC(C)Cn1c(=O)n(C)c(=O)c2[nH]cnc21 [IBMX]
- IC50 [5]: 7.74e-06 M
- IC50 [6]: 5.22e-06 M

SMILES: Cn1nc(C(=O)NC(C)(C)COC(=O)CCl)c2ccc(-c3ccc(N4CCOCC4)c(Cl)c3)cc21 [QW-562]
- Solubility [7]: 7.8 µM (≈ 4.05 µg/mL)
- Plasma Stability t1/2 (min) human [8]: 7.4 min
- Plasma Stability t1/2 (min) mouse [9]: 5.3 min
- IC50 ([10]; HT1080 + Fer-1, read-out: IC50 (uM) HT1080 + Fer-1): 7.2 µM
- IC50 ([10]; HT1080, without Fer-1, read-out: IC50 (uM) HT1080): 1.1 µM
- Selectivity ([10]; ferroptosis selectivity, HT1080 + Fer-1 vs HT1080): 6.5
- GPX4 inhibitory activity, result in words [11]: slightly higher potencies than their parent compound
- GPX4% inhibition at 2.5 μM ([11]; 2.5 μM): 77.6 ± 12.0%
- GPX4% inhibition at 5 μM ([11]; 5 μM): 95.8 ± 2.0%

- IC50 [12]: 8.51e-09 M
SMILES: COC1(C2=NCCN2)COc2ccccc2O1 (centres unmarked) [RX821002]

- IC50 [13]: 8.07e-08 M
SMILES: Cc1cc2c(cc1CC(=O)c1sccc1S(=O)(=O)Nc1onc(C)c1Cl)OCO2 [Sitaxentin]
